# Laboratory results published in paper PMC4850288, “Crystal Structure and Activity Studies of the C11 Cysteine Peptidase from Parabacteroides merdae in the Human Gut Microbiome” (The Journal of Biological Chemistry, 2016).
# Changes are numbered by the printed parent chain.
# Columns and labels:
# PmC11 [1] = biological target: T1, PmC11 (Parabacteroides merdae, UniProt A0ABF7PHE6, K147A, form not given); assay: fluorogenic AMC release, Lineweaver-Burk; assay type: biochemical; conditions: pH 8.0, 20 mM Tris, 150 mM NaCl, 37 °C; enzyme preincubated 16 h at 37 °C; 0-600 μM substrate; unprocessed cleavage-site mutant
# T1 construct: gene PARMER_00083; signal peptide Met1-Asn22 deleted (for structure); N-terminal tag MGSDKIHHHHHHENLYFQ/G, kept in assays; E. coli BL21 Star (DE3); monomer
# T1 sequence (A0ABF7PHE6 23-147 K147A): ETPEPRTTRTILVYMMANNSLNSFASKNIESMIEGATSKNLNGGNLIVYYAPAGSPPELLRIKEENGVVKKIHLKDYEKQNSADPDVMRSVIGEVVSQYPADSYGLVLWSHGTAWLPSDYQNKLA
# T1 sequence (A0ABF7PHE6 148-375): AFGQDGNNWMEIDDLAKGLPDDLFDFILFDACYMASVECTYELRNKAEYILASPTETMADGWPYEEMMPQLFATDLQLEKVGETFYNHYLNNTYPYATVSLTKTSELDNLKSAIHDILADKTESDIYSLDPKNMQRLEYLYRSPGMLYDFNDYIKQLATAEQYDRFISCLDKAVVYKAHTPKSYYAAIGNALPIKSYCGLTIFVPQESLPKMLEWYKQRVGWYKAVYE
# Protocol: (§1) fluorogenic AMC release, Lineweaver-Burk on PmC11 | Km and Vmax of PmC11 and K147A mutant were determined by monitoring change in the fluorescence
# PmC11 [2] = biological target: T2, PmC11 (Parabacteroides merdae, UniProt A0ABF7PHE6); assay: fluorogenic AMC release, Lineweaver-Burk; assay type: biochemical; conditions: pH 8.0, 20 mM Tris, 150 mM NaCl, 37 °C; enzyme preincubated 16 h at 37 °C; 0-600 μM substrate
# T2 construct: gene PARMER_00083; signal peptide Met1-Asn22 deleted (for structure); N-terminal tag MGSDKIHHHHHHENLYFQ/G, kept in assays; E. coli BL21 Star (DE3); monomer
# T2 sequence (A0ABF7PHE6 23-147): T1 sequence (A0ABF7PHE6 23-147 K147A) with A125K
# T2 sequence (A0ABF7PHE6 148-375): T1 sequence (A0ABF7PHE6 148-375)
# Protocol: as §1
structure (smiles),measurement,setting,value
"Cc1cc(=O)oc2cc(NC(=O)[C@H](CCCNC(=N)N)NC(=O)c3ccccc3)ccc12 [Bz-R-AMC, benzoyl-L-Arg-4-methylcoumaryl-7-amide]",Km,PmC11 [1],301 ± 239 µM
same,Km,PmC11 [2],274 ± 6 µM
